Test results reported in US10004701B2, “Methods and compositions for treating infection” (UNIVERSITY OF ROCHESTER, priority 2012, dated 2018).
Structures can show the parent of a compound that is named as a salt. Where two headings read alike, the source gives them in different places.

What was measured:
Assay in all cases: AK assay 384-well format, Prestwick library screening
[1] = system: E. cloacae; format: cell-based, Enterobacter cloacae; settings: for fold induction at 50 µM: Enterobacter cloacae, 3 h
[2] = system: E. coli; format: cell-based, Escherichia coli; settings: for fold induction at 50 µM: Escherichia coli, 3 h
[3] = system: A. baumannii strain 98-37-09; format: cell-based, Acinetobacter baumannii; settings: for fold induction at 50 µM: Acinetobacter baumannii, 983709, 3 h
[4] = system: P. aeruginosa; format: cell-based, Pseudomonas aeruginosa; settings: for fold induction at 50 µM: Pseudomonas aeruginosa, 3 h
[5] = system: E. faecium; format: cell-based, Enterococcus faecium; settings: for fold induction at 50 µM: Enterococcus faecium, 3 h
[6] = system: K. pneumoniae; format: cell-based, Klebsiella pneumoniae; settings: for fold induction at 50 µM: Klebsiella pneumoniae, 3 h
[7] = system: S. aureus strain USA300-0114; format: cell-based, Staphylococcus aureus; settings: for fold induction at 50 µM: Staphylococcus aureus, USA300, 3 h
[8] = planktonic E. cloacae, 50 μM final drug concentration, 384-well, cutoff for positive-scoring molecules 3-fold increase, read-out: AK-based Prestwick Library Screening Results: E. cloacae (increase in extracellular AK activity)
[9] = planktonic E. coli, 50 μM final drug concentration, 384-well, cutoff for positive-scoring molecules 3-fold increase, read-out: AK-based Prestwick Library Screening Results: E. coli (increase in extracellular AK activity)
[10] = planktonic A. baumannii, 50 μM final drug concentration, 384-well, cutoff for positive-scoring molecules 3-fold increase, read-out: AK-based Prestwick Library Screening Results: A. baumannii (increase in extracellular AK activity)
[11] = planktonic P. aeruginosa, 50 μM final drug concentration, 384-well, cutoff for positive-scoring molecules 3-fold increase, read-out: AK-based Prestwick Library Screening Results: P. aeruginosa (increase in extracellular AK activity)
[12] = planktonic E. faecium, 50 μM final drug concentration, 384-well, cutoff for positive-scoring molecules 3-fold increase, read-out: AK-based Prestwick Library Screening Results: E. faecium (increase in extracellular AK activity)
[13] = planktonic K. pneumoniae, 50 μM final drug concentration, 384-well, cutoff for positive-scoring molecules 3-fold increase, read-out: AK-based Prestwick Library Screening Results: K. pneumoniae (increase in extracellular AK activity)
[14] = planktonic S. aureus, 50 μM final drug concentration, 384-well, cutoff for positive-scoring molecules 3-fold increase, read-out: AK-based Prestwick Library Screening Results: S. aureus (increase in extracellular AK activity)
[15] = planktonic E. cloacae, 50 μM final drug concentration, cutoff for positive-scoring molecules 3-fold increase
[16] = planktonic E. coli, 50 μM final drug concentration, cutoff for positive-scoring molecules 3-fold increase
[17] = planktonic A. baumannii, 50 μM final drug concentration, cutoff for positive-scoring molecules 3-fold increase
[18] = planktonic P. aeruginosa, 50 μM final drug concentration, cutoff for positive-scoring molecules 3-fold increase
[19] = planktonic E. faecium, 50 μM final drug concentration, cutoff for positive-scoring molecules 3-fold increase
[20] = planktonic K. pneumoniae, 50 μM final drug concentration, cutoff for positive-scoring molecules 3-fold increase
[21] = planktonic S. aureus, 50 μM final drug concentration, cutoff for positive-scoring molecules 3-fold increase
[22] = planktonic E. cloacae, 50 μM final drug concentration, cutoff for positive-scoring molecules 3-fold increase, read-out: AK-based Prestwick Library Screening Results, E. cloacae (increase in extracellular AK activity)
[23] = planktonic E. coli, 50 μM final drug concentration, cutoff for positive-scoring molecules 3-fold increase, read-out: AK-based Prestwick Library Screening Results, E. coli (increase in extracellular AK activity)
[24] = planktonic A. baumannii, 50 μM final drug concentration, cutoff for positive-scoring molecules 3-fold increase, read-out: AK-based Prestwick Library Screening Results, A. baumannii (increase in extracellular AK activity)
[25] = planktonic P. aeruginosa, 50 μM final drug concentration, cutoff for positive-scoring molecules 3-fold increase, read-out: AK-based Prestwick Library Screening Results, P. aeruginosa (increase in extracellular AK activity)
[26] = planktonic E. faecium, 50 μM final drug concentration, cutoff for positive-scoring molecules 3-fold increase, read-out: AK-based Prestwick Library Screening Results, E. faecium (increase in extracellular AK activity)
[27] = planktonic K. pneumoniae, 50 μM final drug concentration, cutoff for positive-scoring molecules 3-fold increase, read-out: AK-based Prestwick Library Screening Results, K. pneumoniae (increase in extracellular AK activity)
[28] = planktonic S. aureus, 50 μM final drug concentration, cutoff for positive-scoring molecules 3-fold increase, read-out: AK-based Prestwick Library Screening Results, S. aureus (increase in extracellular AK activity)
[29] = 50 μM final drug concentration, […]

## CC(=O)[C@@]1(O)CC[C@H]2[C@@H]3C[C@H](C)C4=CC(=O)C=C[C@]4(C)[C@@]3(F)[C@@H](O)C[C@@]21C [Fluorometholone]
[1]; 50 μM final drug concentration, cutoff for positive-scoring molecules 3-fold increase, read-out: AK-based Prestwick Library Screening Results, E. cloacae (fold increase in extracellular AK activity)
  fold induction at 50 µM: 1.7
[2]; 50 μM final drug concentration, cutoff for positive-scoring molecules 3-fold increase, read-out: AK-based Prestwick Library Screening Results, E. coli (fold increase in extracellular AK activity)
  fold induction at 50 µM: 1.1
[3]; 50 μM final drug concentration, cutoff for positive-scoring molecules 3-fold increase, read-out: AK-based Prestwick Library Screening Results, A. baumannii (fold increase in extracellular AK activity)
  fold induction at 50 µM: 1.3
[4]; 50 μM final drug concentration, cutoff for positive-scoring molecules 3-fold increase, read-out: AK-based Prestwick Library Screening Results, P. aeruginosa (fold increase in extracellular AK activity)
  fold induction at 50 µM: 1.1
[5]; 50 μM final drug concentration, cutoff for positive-scoring molecules 3-fold increase, read-out: AK-based Prestwick Library Screening Results, E. faecium (fold increase in extracellular AK activity)
  fold induction at 50 µM: 1
[6]; 50 μM final drug concentration, cutoff for positive-scoring molecules 3-fold increase, read-out: AK-based Prestwick Library Screening Results, K. pneumoniae (fold increase in extracellular AK activity)
  fold induction at 50 µM: 1
[7]; 50 μM final drug concentration, cutoff for positive-scoring molecules 3-fold increase, read-out: AK-based Prestwick Library Screening Results, S. aureus (fold increase in extracellular AK activity)
  fold induction at 50 µM: 1.2

## CCN(CC)CCCC(C)Nc1c2ccc(Cl)cc2nc2ccc(OC)cc12 (stereo not shown) [Quinacrine dihydrochloride dihydrate]
[1]; [8]
  fold induction at 50 µM: 1.4
[2]; [9]
  fold induction at 50 µM: 1.2
[3]; [10]
  fold induction at 50 µM: 1.3
[4]; [11]
  fold induction at 50 µM: 0.9
[5]; [12]
  fold induction at 50 µM: 1
[6]; [13]
  fold induction at 50 µM: 1
[7]; [14]
  fold induction at 50 µM: 1.2

## Iobenguane sulfate
[1]; [15]
  AK-based Prestwick Library Screening Results, E. cloacae (increase in extracellular AK activity): 0.6
[2]; [16]
  AK-based Prestwick Library Screening Results, E. coli (increase in extracellular AK activity): 0.5
[3]; [17]
  AK-based Prestwick Library Screening Results, A. baumannii (increase in extracellular AK activity): 0.5
[4]; [18]
  AK-based Prestwick Library Screening Results, P. aeruginosa (increase in extracellular AK activity): 0.4
[5]; [19]
  AK-based Prestwick Library Screening Results, E. faecium (increase in extracellular AK activity): 0.9
[6]; [20]
  AK-based Prestwick Library Screening Results, K. pneumoniae (increase in extracellular AK activity): 0.5
[7]; [21]
  AK-based Prestwick Library Screening Results, S. aureus (increase in extracellular AK activity): 0.5

## C[C@]12CC[C@H]3C(=CCc4cc(O)ccc43)[C@@H]1CCC2=O [Equilin]
[1]; read-out: AK-based Prestwick Library Screening Results, E. cloacae (fold increase in extracellular AK activity)
  fold induction at 50 µM: 1.4
[2]; read-out: AK-based Prestwick Library Screening Results, E. coli (fold increase in extracellular AK activity)
  fold induction at 50 µM: 1.3
[3]; read-out: AK-based Prestwick Library Screening Results, A. baumannii (fold increase in extracellular AK activity)
  fold induction at 50 µM: 1
[4]; read-out: AK-based Prestwick Library Screening Results, P. aeruginosa (fold increase in extracellular AK activity)
  fold induction at 50 µM: 1.1
[5]; read-out: AK-based Prestwick Library Screening Results, E. faecium (fold increase in extracellular AK activity)
  fold induction at 50 µM: 1
[6]; read-out: AK-based Prestwick Library Screening Results, K. pneumoniae (fold increase in extracellular AK activity)
  fold induction at 50 µM: 0.9
[7]; read-out: AK-based Prestwick Library Screening Results, S. aureus (fold increase in extracellular AK activity)
  fold induction at 50 µM: 3.9

## CC(C)COCC(CN(Cc1ccccc1)c1ccccc1)N1CCCC1 (stereo not shown) [Bepridil hydrochloride]
[1]; [22]
  fold induction at 50 µM: 1.4
[2]; [23]
  fold induction at 50 µM: 1.3
[3]; [24]
  fold induction at 50 µM: 1.5
[4]; [25]
  fold induction at 50 µM: 1.2
[5]; [26]
  fold induction at 50 µM: 1.1
[6]; [27]
  fold induction at 50 µM: 1
[7]; [28]
  fold induction at 50 µM: 1.6

## C=C1CC[C@H](O)C/C1=C/C=C1\CCC[C@]2(C)[C@@H]([C@H](C)/C=C/[C@H](C)C(C)C)CC[C@@H]12 [Calciferol]
[1]; [22]
  fold induction at 50 µM: 0.7
[2]; [23]
  fold induction at 50 µM: 0.8
[3]; [24]
  fold induction at 50 µM: 0.7
[4]; [25]
  fold induction at 50 µM: 0.7
[5]; [26]
  fold induction at 50 µM: 0.9
[6]; [27]
  fold induction at 50 µM: 0.7
[7]; [28]
  fold induction at 50 µM: 0.5

## Cl.NCC(O)c1ccc(O)cc1 (racemic) [(+,−)-Octopamine hydrochloride]
[1]; [29]
  AK-based Prestwick Library Screening Results, E. cloacae (fold increase in extracellular AK activity): 1.4
[2]; [29]
  AK-based Prestwick Library Screening Results, E. coli (fold increase in extracellular AK activity): 1.3
[3]; [29]
  AK-based Prestwick Library Screening Results, A. baumannii (fold increase in extracellular AK activity): 1.3
[4]; [29]
  AK-based Prestwick Library Screening Results, P. aeruginosa (fold increase in extracellular AK activity): 1.0
[5]; [29]
  AK-based Prestwick Library Screening Results, E. faecium (fold increase in extracellular AK activity): 1.0
[6]; [29]
  AK-based Prestwick Library Screening Results, K. pneumoniae (fold increase in extracellular AK activity): 1.1
[7]; [29]
  AK-based Prestwick Library Screening Results, S. aureus (fold increase in extracellular AK activity): 1.3

## CC(C)NCC(O)c1cc(O)cc(O)c1.CC(C)NCC(O)c1cc(O)cc(O)c1.O=S(=O)(O)O (stereo not shown)
[1]; [15]
  AK-based Prestwick Library Screening Results, E. cloacae (increase in extracellular AK activity): 1.0
[2]; [16]
  AK-based Prestwick Library Screening Results, E. coli (increase in extracellular AK activity): 1.0
[3]; [17]
  AK-based Prestwick Library Screening Results, A. baumannii (increase in extracellular AK activity): 0.9
[4]; [18]
  AK-based Prestwick Library Screening Results, P. aeruginosa (increase in extracellular AK activity): 0.9
[5]; [19]
  AK-based Prestwick Library Screening Results, E. faecium (increase in extracellular AK activity): 0.9
[6]; [20]
  AK-based Prestwick Library Screening Results, K. pneumoniae (increase in extracellular AK activity): 0.7
[7]; [21]
  AK-based Prestwick Library Screening Results, S. aureus (increase in extracellular AK activity): 0.6

## CN(C)CCCOc1nn(Cc2ccccc2)c2ccccc12 [Benzydamine hydrochloride]
[1]; [8]
  fold induction at 50 µM: 1.2
[2]; [9]
  fold induction at 50 µM: 1.3
[3]; [10]
  fold induction at 50 µM: 1
[4]; [11]
  fold induction at 50 µM: 1.2
[5]; [12]
  fold induction at 50 µM: 1.1
[6]; [13]
  fold induction at 50 µM: 1
[7]; [14]
  fold induction at 50 µM: 1.1

## O=C(O)c1cc(=O)c2c(OCC(O)COc3cccc4oc(C(=O)O)cc(=O)c34)cccc2o1 [Cromolyn disodium salt]
[1]; 50 μM final drug concentration, planktonic, cutoff for positive-scoring molecules 3-fold increase, read-out: AK-based Prestwick Library Screening Results, E. cloacae (fold increase in extracellular AK activity)
  fold induction at 50 µM: 1
[2]; 50 μM final drug concentration, planktonic, cutoff for positive-scoring molecules 3-fold increase, read-out: AK-based Prestwick Library Screening Results, E. coli (fold increase in extracellular AK activity)
  fold induction at 50 µM: 0.7
[3]; 50 μM final drug concentration, planktonic, cutoff for positive-scoring molecules 3-fold increase, read-out: AK-based Prestwick Library Screening Results, A. baumannii (fold increase in extracellular AK activity)
  fold induction at 50 µM: 0.9
[4]; 50 μM final drug concentration, planktonic, cutoff for positive-scoring molecules 3-fold increase, read-out: AK-based Prestwick Library Screening Results, P. aeruginosa (fold increase in extracellular AK activity)
  fold induction at 50 µM: 0.8
[5]; 50 μM final drug concentration, planktonic, cutoff for positive-scoring molecules 3-fold increase, read-out: AK-based Prestwick Library Screening Results, E. faecium (fold increase in extracellular AK activity)
  fold induction at 50 µM: 0.9
[6]; 50 μM final drug concentration, planktonic, cutoff for positive-scoring molecules 3-fold increase, read-out: AK-based Prestwick Library Screening Results, K. pneumoniae (fold increase in extracellular AK activity)
  fold induction at 50 µM: 0.7
[7]; 50 μM final drug concentration, planktonic, cutoff for positive-scoring molecules 3-fold increase, read-out: AK-based Prestwick Library Screening Results, S. aureus (fold increase in extracellular AK activity)
  fold induction at 50 µM: 0.7
